{"source": "patent US8686150B2", "about": "(Sanofi, priority 2011, dated 2014)", "biological_target": "T1, human full-length recombinant PKC βII (Homo sapiens, UniProt P05771)", "T1 construct": "Active human full-length recombinant PKC βII; purchased Invitrogen GmbH, Darmstadt, Germany", "T1 sequence (P05771 1-673 isoform P05771-2)": "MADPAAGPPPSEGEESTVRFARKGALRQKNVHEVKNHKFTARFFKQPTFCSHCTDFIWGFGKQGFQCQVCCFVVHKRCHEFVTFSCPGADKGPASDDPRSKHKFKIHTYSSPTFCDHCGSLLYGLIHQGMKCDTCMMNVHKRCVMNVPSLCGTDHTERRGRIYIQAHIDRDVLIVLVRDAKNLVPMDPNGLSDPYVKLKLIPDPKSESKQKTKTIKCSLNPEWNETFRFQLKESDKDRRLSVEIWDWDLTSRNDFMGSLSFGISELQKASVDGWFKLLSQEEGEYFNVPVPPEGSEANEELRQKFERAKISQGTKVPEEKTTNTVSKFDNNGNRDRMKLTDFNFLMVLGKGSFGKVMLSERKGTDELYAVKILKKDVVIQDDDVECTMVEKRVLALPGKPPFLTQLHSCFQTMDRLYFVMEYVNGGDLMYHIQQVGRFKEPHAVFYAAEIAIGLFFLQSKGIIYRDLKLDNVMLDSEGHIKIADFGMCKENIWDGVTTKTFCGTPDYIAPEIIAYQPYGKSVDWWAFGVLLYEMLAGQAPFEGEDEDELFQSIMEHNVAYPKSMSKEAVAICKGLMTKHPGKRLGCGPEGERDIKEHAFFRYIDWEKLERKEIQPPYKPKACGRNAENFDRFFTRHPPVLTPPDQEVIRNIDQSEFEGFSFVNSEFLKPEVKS", "assay": "Determination of PKC βII inhibition (Caliper mobility-shift kinase assay, Fluorescein-RFARKGSLRQKNV peptide substrate)", "format": "biochemical", "conditions": "example compounds at a final concentration of 1.14 μM (±0.15 μM)", "how_it_was_run": "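Compounds were tested at 1.14 μM final. Enzyme was activated by PS, DAG and CaCl2 in Hepes pH 7.4 with MgCl2, with substrate 3 μM and ATP 120 μM as pre-mix concentrations. After 60 min at 32 °C and an EDTA stop, Caliper separation gave fractional turnover, which was normalised to no-compound and no-enzyme controls.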", "data": [{"smiles": "Cc1n[nH]c2nc(-c3ccc(O)cc3)cc(C(=O)N(C)C3CCN(C)CC3)c12", "note": "[Example 272, 6-(4-Hydroxy-phenyl)-3-methyl-1H-pyrazolo[3,4-b]pyridine-4-carboxylic acid methyl-(1-methyl-piperidin-4-yl)-amide]", "values": [{"measurement": "inhibition at 1.14 µM", "value": 85, "unit": "%"}]}, {"smiles": "CCc1n[nH]c2nc(-c3ccc(O)cc3)cc(C(=O)N[C@H]3CNC[C@@H]3OC)c12", "note": "[Example 161, 3-Ethyl-6-(4-hydroxy-phenyl)-1H-pyrazolo[3,4-b]pyridine-4-carboxylic acid ((3S,4S)-4-methoxy-pyrrolidin-3-yl)-amide]", "values": [{"measurement": "inhibition at 1.14 µM", "value": 77, "unit": "%"}]}, {"smiles": "Cc1n[nH]c2nc(-c3ccc(O)cc3)cc(C(=O)N3CCNCC3c3ccccc3)c12", "note": "(centres unmarked) [Example 26, [6-(4-Hydroxy-phenyl)-3-methyl-1H-pyrazolo[3,4-b]pyridin-4-yl]-(2-phenyl-piperazin-1-yl)-methanone]", "values": [{"measurement": "inhibition at 1.14 µM", "value": 97, "unit": "%"}]}, {"smiles": "CCC[C@@H]1CN(C(=O)c2cc(-c3ccc(O)cc3)nc3[nH]nc(C)c23)CCN1", "note": "[Example 195, [6-(4-Hydroxy-phenyl)-3-methyl-1H-pyrazolo[3,4-b]pyridin-4-yl]-((R)-3-propyl-piperazin-1-yl)-methanone]", "values": [{"measurement": "inhibition at 1.14 µM", "value": 95, "unit": "%"}]}, {"smiles": "Cc1n[nH]c2nc(-c3ccc(O)cc3)cc(C(=O)N3CCNC(c4ccccc4)C3)c12", "note": "(single isomer, unassigned) [Example 456, [6-(4-Hydroxy-phenyl)-3-methyl-1H-pyrazolo[3,4-b]pyridin-4-yl]-(3-phenyl-piperazin-1-yl)-methanone]", "values": [{"measurement": "% Inhibition", "value": 88, "unit": "%"}]}, {"smiles": "Cc1n[nH]c2nc(-c3ccc(O)cc3)cc(C(=O)N3CCNCC3c3ccc(C(C)C)cc3)c12", "note": "(centres unmarked) [Example 94, [6-(4-Hydroxy-phenyl)-3-methyl-1H-pyrazolo[3,4-b]pyridin-4-yl]-[2-(4-isopropyl-phenyl)-piperazin-1-yl]-methanone]", "values": [{"measurement": "inhibition at 1.14 µM", "value": 90, "unit": "%"}]}, {"smiles": "Cc1n[nH]c2nc(-c3ccc(O)c(F)c3)cc(C(=O)N3CCNC(C)C3C)c12", "note": "(centres unmarked) [Example 352, (2,3-Dimethyl-piperazin-1-yl)-[6-(3-fluoro-4-hydroxy-phenyl)-3-methyl-1H-pyrazolo[3,4-b]pyridin-4-yl]-methanone]", "values": [{"measurement": "inhibition at 1.14 µM", "value": 84, "unit": "%"}]}, {"smiles": "Cc1n[nH]c2nc(-c3ccc(O)cc3)cc(C(=O)N3CCOC4(CCNCC4)C3)c12", "note": "[Example 261, [6-(4-Hydroxy-phenyl)-3-methyl-1H-pyrazolo[3,4-b]pyridin-4-yl]-(1-oxa-4,9-diaza-spiro[5.5]undec-4-yl)-methanone]", "values": [{"measurement": "inhibition at 1.14 µM", "value": 70, "unit": "%"}]}, {"smiles": "Cc1n[nH]c2nc(-c3ccc(O)cc3)cc(C(=O)N3CCC[C@@H](CN)C3)c12", "note": "[Example 110, ((S)-3-Aminomethyl-piperidin-1-yl)-[6-(4-hydroxy-phenyl)-3-methyl-1H-pyrazolo[3,4-b]pyridin-4-yl]-methanone]", "values": [{"measurement": "inhibition at 1.14 µM", "value": 65, "unit": "%"}]}, {"smiles": "Cc1n[nH]c2nc(-c3ccc(O)cc3F)cc(C(=O)N3C[C@H](C)NC[C@@H]3C)c12", "note": "[Example 430, ((2S,5S)-2,5-Dimethyl-piperazin-1-yl)-[6-(2-fluoro-4-hydroxy-phenyl)-3-methyl-1H-pyrazolo[3,4-b]pyridin-4-yl]-methanone]", "values": [{"measurement": "inhibition at 1.14 µM", "value": 92, "unit": "%"}]}, {"smiles": "Cc1n[nH]c2nc(-c3ccc(O)c(F)c3)cc(C(=O)N3CCNC(C)C3)c12", "note": "(centres unmarked) [Example 303, [6-(3-Fluoro-4-hydroxy-phenyl)-3-methyl-1H-pyrazolo[3,4-b]pyridin-4-yl]-(3-methyl-piperazin-1-yl)-methanone]", "values": [{"measurement": "inhibition at 1.14 µM", "value": 93, "unit": "%"}]}, {"smiles": "Cc1n[nH]c2nc(-c3ccc(O)cc3)cc(C(=O)N3CCNC(C)(C)C3)c12", "note": "[Example 198, (3,3-Dimethyl-piperazin-1-yl)-[6-(4-hydroxy-phenyl)-3-methyl-1H-pyrazolo[3,4-b]pyridin-4-yl]-methanone]", "values": [{"measurement": "inhibition at 1.14 µM", "value": 99, "unit": "%"}]}, {"smiles": "Cc1n[nH]c2nc(-c3ccc(O)cc3)cc(C(=O)N3CCNC[C@@H]3c3cccc(F)c3)c12", "note": "[Example 82, [(S)-2-(3-Fluoro-phenyl)-piperazin-1-yl]-[6-(4-hydroxy-phenyl)-3-methyl-1H-pyrazolo[3,4-b]pyridin-4-yl]-methanone]", "values": [{"measurement": "inhibition at 1.14 µM", "value": 92, "unit": "%"}]}, {"smiles": "Cc1n[nH]c2nc(-c3ccc(O)cc3F)cc(C(=O)N3[C@@H]4CC[C@H]3CNC4)c12", "note": "[Example 417, 3,8-Diaza-bicyclo[3.2.1]oct-8-yl-[6-(2-fluoro-4-hydroxy-phenyl)-3-methyl-1H-pyrazolo[3,4-b]pyridin-4-yl]-methanone]", "values": [{"measurement": "inhibition at 1.14 µM", "value": 78, "unit": "%"}]}, {"smiles": "Cc1n[nH]c2nc(-c3ccc(O)cc3)cc(C(=O)NC3CCN(CCc4ccccc4)CC3)c12", "note": "[Example 382, 6-(4-Hydroxy-phenyl)-3-methyl-1H-pyrazolo[3,4-b]pyridine-4-carboxylic acid (1-phenethyl-piperidin-4-yl)-amide]", "values": [{"measurement": "inhibition at 1.14 µM", "value": 67, "unit": "%"}]}, {"smiles": "CC(=O)N1CCC(NC(=O)c2cc(-c3ccc(O)c(F)c3)nc3[nH]nc(C)c23)CC1", "note": "[Example 357, 6-(3-Fluoro-4-hydroxy-phenyl)-3-methyl-1H-pyrazolo[3,4-b]pyridine-4-carboxylic acid (1-acetyl-piperidin-4-yl)-amide]", "values": [{"measurement": "inhibition at 1.14 µM", "value": 21, "unit": "%"}]}, {"smiles": "O=C(c1cc(-c2ccc(O)cc2)nc2[nH]nc(C(F)(F)F)c12)N1CC2CNCC2C1", "note": "(centres unmarked) [Example 400, (Hexahydro-pyrrolo[3,4-c]pyrrol-2-yl)-[6-(4-hydroxy-phenyl)-3-trifluoromethyl-1H-pyrazolo[3,4-b]pyridin-4-yl]-methanone]", "values": [{"measurement": "inhibition at 1.14 µM", "value": 62, "unit": "%"}]}, {"smiles": "Cc1n[nH]c2nc(-c3ccc(O)cc3F)cc(C(=O)N3CCNC[C@H]3c3ccccc3)c12", "note": "[Example 57, [6-(2-Fluoro-4-hydroxy-phenyl)-3-methyl-1H-pyrazolo[3,4-b]pyridin-4-yl]-((R)-2-phenyl-piperazin-1-yl)-methanone]", "values": [{"measurement": "inhibition at 1.14 µM", "value": 99, "unit": "%"}]}, {"smiles": "Cc1n[nH]c2nc(-c3ccc(O)cc3)cc(C(=O)N3C[C@H](C)NC[C@H]3C)c12", "note": "(relative stereo) [Example 73, (trans-2,5-Dimethyl-piperazin-1-yl)-[6-(4-hydroxy-phenyl)-3-methyl-1H-pyrazolo[3,4-b]pyridin-4-yl]-methanone]", "values": [{"measurement": "inhibition at 1.14 µM", "value": 95, "unit": "%"}]}, {"smiles": "Cc1n[nH]c2nc(-c3ccc(O)c(F)c3)cc(C(=O)N3C[C@H]4CNC[C@H]4C3)c12", "note": "[Example 306, [6-(3-Fluoro-4-hydroxy-phenyl)-3-methyl-1H-pyrazolo[3,4-b]pyridin-4-yl]-(3aR,6aS)-hexahydro-pyrrolo[3,4-c]pyrrol-2-yl-methanone]", "values": [{"measurement": "inhibition at 1.14 µM", "value": 76, "unit": "%"}]}, {"smiles": "Cc1n[nH]c2nc(-c3ccc(O)cc3)cc(C(=O)N3C[C@H]4CNC[C@H]4C3)c12", "note": "[Example 250, (3aR,6aS)-Hexahydro-pyrrolo[3,4-c]pyrrol-2-yl-[6-(4-hydroxy-phenyl)-3-methyl-1H-pyrazolo[3,4-b]pyridin-4-yl]-methanone]", "values": [{"measurement": "inhibition at 1.14 µM", "value": 85, "unit": "%"}]}, {"smiles": "Cc1n[nH]c2nc(-c3ccc(O)cc3F)cc(C(=O)N3CCNC(c4ccccc4)C3)c12", "note": "(centres unmarked) [Example 421, [6-(2-Fluoro-4-hydroxy-phenyl)-3-methyl-1H-pyrazolo[3,4-b]pyridin-4-yl]-(3-phenyl-piperazin-1-yl)-methanone]", "values": [{"measurement": "inhibition at 1.14 µM", "value": 51, "unit": "%"}]}, {"smiles": "Cc1n[nH]c2nc(-c3ccc(O)c(F)c3)cc(C(=O)NCC3CCNC3)c12", "note": "(centres unmarked) [Example 354, 6-(3-Fluoro-4-hydroxy-phenyl)-3-methyl-1H-pyrazolo[3,4-b]pyridine-4-carboxylic acid (pyrrolidin-3-ylmethyl)-amide]", "values": [{"measurement": "inhibition at 1.14 µM", "value": 52, "unit": "%"}]}]}
